{
  "source": "patent US8372621B2",
  "about": "“Methods and materials for the production of shikimic acid” (priority 2003, dated 2013)",
  "molecules": {"B1": {"name": "E. coli KDPGal aldolase (DgoA) variant EC03-1 (F33I, D58N, Q72H, A75V, V85A, V154F; parent SEQ ID NO:2), GST fusion protein (Escherichia coli K-12; … (protein)", "chain": "MQWQTKLPLIAILRGITPDEALAHVGAVIDAGIDAVEIPLNSPQWEQSIPAIVDAYGNKALIGAGTVLKPEHVDVLARMGCQLIATPNIHSEVIRRAVGYGMTVCPGCATATEAFTALEAGAQALKIFPSSAFGPQYIKALKAVLPSDIAVFAFGGVTPENLAQWIDAGCAGAGLGSDLYRAGQSVERTAQQAAAFVKAYREAVQ"}, "B2": {"name": "Escherichia coli KDPGal aldolase (DgoA), wild type, SEQ ID NO:2, GST fusion protein (Escherichia coli K-12) (protein)", "chain": "B1 chain with I33F, N58D, H72Q, V75A, A85V, F154V"}},
  "key": {"[1]": {"system": "chimeric KDPGal aldolase (DgoA) variant NR8.165-6 (family shuffling of EC03-1, KP03-3 and ST04-5), GST fusion protein", "assay": "DAHP formation kinetics, family-shuffled variant NR8.165-6 (Table 10)", "format": "biochemical, chimera of E. coli, K. pneumoniae and S. typhimurium", "procedure": "(§1) Enzyme activity is measured by following the formation of 3-dehydroshikimic acid (DHS) over time when DHQ synthase (3-dehydroquinate synthase, E.C. 4.2.3.4) and DHQ dehydratase (E.C. 4.2.1.10) are utilized as coupling enzymes. DHQ synthase is prepared as described in Frost, J. W. et al., Biochemistry, 1984, 23, 4470-75; DHQ dehydratase is purified from E. coli AB2848/pKD201 The reaction (1 mL) contains 50 mM morpholinepropanesulfonic acid (MOPS) buffer (pH 7.5), 1 mM D-erythrose 4-phosphate, 1 mM pyruvate, 50 μM CoCl2, 10 μM NAD, 1 U of DHQ synthase, 1 U of DHQ dehydratase and cellular lysate. The reaction is initiated by addition of diluted cellular lysate to the assay solution, and the absorbance at 234 nm monitored continuously for 5 min. One unit of evolved enzyme activity is defined by the formation of one μmol of DHS per minute.\n(§2) The the dgoA mutants, EC03-1, KP03-3 and ST04-5, were subjected to DNA family shuffling using the single-stranded DNA shuffling method developed by Zhao and coworkers: Zha, W; Zhu, T; Zhao, H., Methods Mol. Biol. 2003, 231, 91-97. […] The dgoA gene hybrids from the five largest colonies that appeared after 2.5 days were sequenced and their encoding KDPGal aldolase activities toward DAHP formation were determined as shown in Table 9."}, "[2]": {"system": "E. coli native DAHP synthase AroG", "settings": "Sheflyan et al. 1998, cited from earlier work"}, "[3]": {"system": "chimeric KDPGal aldolase (DgoA) variant NR8.165-2 (family shuffling of EC03-1, KP03-3 and ST04-5), GST fusion protein", "assay": "DAHP formation kinetics, family-shuffled variant NR8.165-2 (Table 10)", "format": "biochemical, chimera of E. coli, K. pneumoniae and S. typhimurium", "procedure": "as §1, §2"}, "[4]": {"system": "E. coli native DAHP synthase AroH", "settings": "Akowski & Bauerle 1997, cited from earlier work"}, "[5]": {"system": "chimeric KDPGal aldolase (DgoA) variant NR8.165-4 (family shuffling of EC03-1, KP03-3 and ST04-5), GST fusion protein", "assay": "DAHP formation kinetics, family-shuffled variant NR8.165-4 (Table 10)", "format": "biochemical, chimera of E. coli, K. pneumoniae and S. typhimurium", "procedure": "as §1, §2"}, "[6]": {"system": "E. coli native DAHP synthase AroF", "settings": "Ramilo & Evans 1997, cited from earlier work"}, "[7]": {"molecular_target": "S. typhimurium KDPGal aldolase (DgoA) variant ST04-5 (D20E, V28M, S42T, I89T, P150L, D178G; parent SEQ ID NO:6), GST fusion protein (Salmonella enterica, UniProt A0A0H3NU26, D178G/D20E/I89T/P150L/S42T/V28M)", "sequence (A0A0H3NU26 whole entry D178G/D20E/I89T/P150L/S42T/V28M, the tested form may be a part)": "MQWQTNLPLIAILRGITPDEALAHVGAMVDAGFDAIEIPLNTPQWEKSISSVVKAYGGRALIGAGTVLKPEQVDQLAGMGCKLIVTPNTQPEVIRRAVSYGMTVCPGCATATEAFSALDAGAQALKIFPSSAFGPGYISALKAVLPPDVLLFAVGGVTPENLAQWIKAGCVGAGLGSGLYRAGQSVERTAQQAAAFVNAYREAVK", "assay": "DAHP formation kinetics, evolved variant ST04-5 (Table 10)", "format": "biochemical", "settings": "purified as GST fusion protein", "procedure": "as §1, with “The reaction is initiated by addition of diluted cellular lysate to the assay solution, and the absorbance at 234 nm monitored continuously for 5 min.” left out"}, "[8]": {"system": "O=C[C@H](O)[C@H](O)COP(=O)(O)O", "assay": "DAHP formation kinetics, wild-type K. pneumoniae KDPGal aldolase (Table 10)", "format": "biochemical, Klebsiella pneumoniae", "settings": "other: purified as GST fusion protein; pH 7.5", "procedure": "as §1"}, "[9]": {"system": "O=C[C@H](O)[C@H](O)COP(=O)(O)O", "assay": "DAHP formation kinetics, evolved variant ST04-5 (Table 10)", "format": "biochemical, Salmonella typhimurium", "settings": "other: purified as GST fusion protein; pH 7.5", "procedure": "as §1, with “The reaction is initiated by addition of diluted cellular lysate to the assay solution, and the absorbance at 234 nm monitored continuously for 5 min.” left out"}, "[10]": {"system": "O=C[C@H](O)[C@H](O)COP(=O)(O)O", "assay": "DAHP formation kinetics, wild-type S. typhimurium KDPGal aldolase (Table 10)", "format": "biochemical, Salmonella typhimurium", "settings": "other: purified as GST fusion protein; pH 7.5", "procedure": "as §1"}, "[11]": {"substrate": "O=C[C@H](O)[C@H](O)COP(=O)(O)O", "assay": "DAHP formation kinetics, evolved variant EC03-1 (Table 10)", "format": "biochemical, Escherichia coli", "settings": "other: purified as GST fusion protein; pH 7.5", "procedure": "as §1, with “1 U of DHQ dehydratase and cellular lysate. The reaction is initiated by addition of diluted cellular lysate to the assay solution, and the absorbance at 234 nm monitored continuously for 5 min.” left out"}, "[12]": {"substrate": "O=C[C@H](O)[C@H](O)COP(=O)(O)O", "assay": "DAHP formation kinetics, wild-type E. coli KDPGal aldolase (Table 10)", "format": "biochemical, Escherichia coli", "settings": "other: purified as GST fusion protein; pH 7.5", "procedure": "as §1, with “1 U of DHQ dehydratase and cellular lysate. The reaction is initiated by addition of diluted cellular lysate to the assay solution, and the absorbance at 234 nm monitored continuously for 5 min.” left out"}, "[13]": {"settings": "purified as GST fusion protein, read-out: Km (E4P)"}, "[14]": {"settings": "relative to parent enzymes EC03-1 and ST04-5"}, "[15]": {"settings": "read-out: Km for D-erythrose 4-phosphate"}, "[16]": {"settings": "compared with the wild-type E. coli KDPGal aldolase"}},
  "note": "Substitutions are numbered along the chain they refer to. Names may count otherwise.",
  "data": [
    {"molecule": "O=C[C@H](O)[C@H](O)COP(=O)(O)O", "note": "[E4P, D-erythrose 4-phosphate]", "values": [
      {"measurement": "kcat", "setting": "[1]; purified as GST fusion protein", "result": 0.504, "unit": "s⁻¹"},
      {"measurement": "kcat/Km", "setting": "[1]; purified as GST fusion protein", "result": 0.0063, "unit": "µM⁻¹ s⁻¹"},
      {"measurement": "Km", "setting": "[1]; [13]", "result": 80, "unit": "µM"},
      {"measurement": "kcat/Km relative to parent enzymes", "setting": "[1]; [14]", "result": "decrease in kcat/Km values relative to their parent enzymes"},
      {"measurement": "kcat", "setting": "[2]", "result": 10.3, "unit": "s⁻¹"},
      {"measurement": "Km", "setting": "[2]; [15]", "result": 141, "unit": "µM"},
      {"measurement": "kcat", "setting": "[3]; purified as GST fusion protein", "result": 2.51, "unit": "s⁻¹"},
      {"measurement": "kcat/Km", "setting": "[3]; purified as GST fusion protein", "result": 0.016, "unit": "µM⁻¹ s⁻¹"},
      {"measurement": "Km", "setting": "[3]; [13]", "result": 157, "unit": "µM"},
      {"measurement": "kcat/Km relative to parent enzymes", "setting": "[3]; [14]", "result": "decrease in kcat/Km values relative to their parent enzymes"},
      {"measurement": "kcat", "setting": "[4]", "result": 20.6, "unit": "s⁻¹"},
      {"measurement": "Km", "setting": "[4]; [15]", "result": 35, "unit": "µM"},
      {"measurement": "increase in kcat", "setting": "[5]; [16]", "result": 5, "unit": "fold"},
      {"measurement": "increase in kcat/Km", "setting": "[5]; [16]", "result": 25, "unit": "fold"},
      {"measurement": "reduction in Km for D-erythrose 4-phosphate", "setting": "[5]; [16]", "result": 5, "unit": "fold"},
      {"measurement": "kcat", "setting": "[5]; purified as GST fusion protein", "result": 4.76, "unit": "s⁻¹"},
      {"measurement": "kcat/Km", "setting": "[5]; purified as GST fusion protein", "result": 0.0414, "unit": "µM⁻¹ s⁻¹"},
      {"measurement": "Km", "setting": "[5]; [13]", "result": 115, "unit": "µM"},
      {"measurement": "kcat", "setting": "[6]", "result": 29.5, "unit": "s⁻¹"},
      {"measurement": "Km", "setting": "[6]; [15]", "result": 81.4, "unit": "µM"},
      {"measurement": "kcat", "setting": "[7]", "result": 3.24, "unit": "s⁻¹"},
      {"measurement": "kcat/Km", "setting": "[7]", "result": 0.0272, "unit": "µM⁻¹ s⁻¹"}
    ]},
    {"molecule": "Klebsiella pneumoniae KDPGal aldolase (DgoA), wild type, SEQ ID NO:4, GST fusion protein (Klebsiella pneumoniae subsp. pneumoniae MGH 78578)", "values": [
      {"measurement": "Km", "setting": "[8]", "result": 1507, "unit": "µM"}
    ]},
    {"molecule": "S. typhimurium KDPGal aldolase (DgoA) variant ST04-5 (D20E, V28M, S42T, I89T, P150L, D178G; parent SEQ ID NO:6), GST fusion protein (Salmonella enterica subsp. enterica serovar Typhimurium str. SL1344; D178G/D20E/I89T/P150L/S42T/V28M)", "values": [
      {"measurement": "Km", "setting": "[9]", "result": 119, "unit": "µM"}
    ]},
    {"molecule": "Salmonella typhimurium KDPGal aldolase (DgoA), wild type, SEQ ID NO:6, GST fusion protein (Salmonella enterica subsp. enterica serovar Typhimurium str. SL1344)", "values": [
      {"measurement": "Km", "setting": "[10]", "result": 685, "unit": "µM"}
    ]},
    {"molecule": "B1", "values": [
      {"measurement": "Km", "setting": "[11]", "result": 124, "unit": "µM"},
      {"measurement": "kcat", "setting": "[11]", "result": 2.49, "unit": "s⁻¹"},
      {"measurement": "kcat/Km", "setting": "[11]", "result": 20100, "unit": "M⁻¹ s⁻¹"}
    ]},
    {"molecule": "B2", "values": [
      {"measurement": "Km", "setting": "[12]", "result": 571, "unit": "µM"},
      {"measurement": "kcat", "setting": "[12]", "result": 0.94, "unit": "s⁻¹"},
      {"measurement": "kcat/Km", "setting": "[12]", "result": 1650, "unit": "M⁻¹ s⁻¹"}
    ]}
  ]
}
